Assay results reported in ChEMBL document CHEMBL1153993, “Exploring a pocket for polycycloaliphatic groups in the CXCR3 receptor with the aid of a modular synthetic strategy” (Bioorg Med Chem Lett, 2009).

Each molecule was assayed against T1, C-X-C chemokine receptor type 3 (Homo sapiens, UniProt P49682) (assay: Displacement of [125I]CXCL10 from human CXCR3 expressed in HEK293T cells). Conditions: not given.
T1 sequence (P49682 whole entry): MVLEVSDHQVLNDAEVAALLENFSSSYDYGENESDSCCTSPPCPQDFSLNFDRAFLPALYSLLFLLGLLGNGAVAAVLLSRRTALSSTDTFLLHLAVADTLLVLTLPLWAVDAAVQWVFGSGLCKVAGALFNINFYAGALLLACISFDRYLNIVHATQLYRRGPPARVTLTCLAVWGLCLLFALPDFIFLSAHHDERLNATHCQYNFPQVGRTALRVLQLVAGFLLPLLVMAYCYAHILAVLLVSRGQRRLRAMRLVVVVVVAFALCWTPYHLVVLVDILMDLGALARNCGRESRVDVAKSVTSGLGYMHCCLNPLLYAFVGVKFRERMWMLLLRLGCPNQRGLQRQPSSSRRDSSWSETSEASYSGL
Format: cell-based, HEK-293T

Ki [nM] | Structure (SMILES)
2510 | Fc1cc(Cl)ccc1CN1CCC(NC/C2=C/CCCCCC2)CC1
5010 | CCOC(=O)C1=C(NC2C3CC4CC(C3)CC2C4)CCN(Cc2ccc(Cl)cc2F)C1 (stereo unspecified)
3980 | CN(C)c1ccc(CN2CCC(N[C@@H]3C[C@H]4CC[C@]3(C)C4(C)C)CC2)cc1 (relative stereo)
1580 | CN(C1CCN(Cc2ccc(Cl)cc2F)CC1)[C@@H]1C[C@H]2CC[C@]1(C)C2(C)C (relative stereo)
3980 | CCOC(=O)C1CN(Cc2ccc(Cl)cc2F)CCC1NC1C2CC3CC(C2)CC1C3 (single isomer, unassigned)
1260 | CN(C1CCN(Cc2ccc(Cl)cc2F)CC1)[C@H]1C[C@H]2CC[C@]1(C)C2(C)C (relative stereo)
> 10000 | CC1(C)[C@@H]2CC[C@@]1(C)[C@H](NC1CCN(Cc3cccnc3)CC1)C2 (relative stereo)
6310 | CC1(C)[C@@H]2CC[C@@]1(C)[C@H](NC1CCN(Cc3ccco3)CC1)C2 (relative stereo)
501 | CC1(C)[C@@H]2CC[C@@]1(C)[C@H](NC1CCN(Cc3ccc(Cl)cc3)CC1)C2 (relative stereo)
3980 | c1ccc(CN2CCC(NC3C4CC5CC(C4)CC3C5)CC2)cc1 (stereo unspecified)
7940 | Fc1cc(Cl)ccc1CN1CCC(NC2C3CC4CC2CN(C4)C3)CC1 (stereo unspecified)
501 | CC12CC3CC(C)(CC(C1)C3NC1CCN(Cc3ccc(Cl)cc3F)CC1)C2 (stereo unspecified)
501 | Fc1cc(Cl)ccc1CN1CCC(NCC23CC4CC(CC(C4)C2)C3)CC1
6310 | CC1(C)[C@@H]2CC[C@@]1(C)[C@H](NC1CCN(Cc3ccc(N)cc3)CC1)C2 (relative stereo)
2000 | COc1ccc(CN2CCC(N[C@@H]3C[C@H]4CC[C@]3(C)C4(C)C)CC2)cc1 (relative stereo)
398 | CC1(C)[C@@H]2CC[C@@]1(C)[C@H](NC1CCN(Cc3ccc(Cl)cc3F)CC1)C2 (relative stereo)
2510 | CC1(C)[C@@H]2CC[C@@]1(C)[C@H](NC1CCN(Cc3ccc(F)c(C(F)(F)F)c3)CC1)C2 (relative stereo)
> 100000 | Fc1cc(Cl)ccc1CN1CCC(NCCC(c2ccccc2)c2ccccc2)CC1
1260 | CN(C1CCN(Cc2ccc(Cl)cc2F)CC1)C1C2CC3CC(C2)CC1C3 (stereo unspecified)
631 | CC1(C)[C@@H]2CC[C@@]1(C)[C@@H](NC1CCN(Cc3ccc(Cl)cc3F)CC1)C2 (relative stereo; 62)
7940 | COc1cccc(CN2CCC(N[C@@H]3C[C@H]4CC[C@]3(C)C4(C)C)CC2)c1 (relative stereo)
2000 | CC1(C)C2CC[C@@]1(C)C(CNC1CCN(Cc3ccc(Cl)cc3F)CC1)C2 (mixture of isomers)
398 | Clc1ccc(CN2CCC(NC3C4CC5CC(C4)CC3C5)CC2)cc1 (stereo unspecified)
158 | Fc1cc(Cl)ccc1CN1CCC(NC2C3CC4CC(C3)CC2C4)CC1 (stereo unspecified)
3980 | CC1(C)C2CC=C(CNC3CCN(Cc4ccc(Cl)cc4F)CC3)C1C2 (stereo unspecified)
3980 | Fc1cc(Cl)ccc1CNC1CCN(C2C3CC4CC(C3)CC2C4)CC1 (stereo unspecified)
> 10000 | Fc1cc(Cl)ccc1CN1CCC(N2CCCC2)CC1

Ki [nM] | Structure (SMILES)
5010 | Fc1cc(Cl)ccc1CN1CCC(NC2CCCCC2)CC1
3980 | Fc1cc(Cl)ccc1CN1CCC(CNC2C3CC4CC(C3)CC2C4)CC1 (stereo unspecified)
2000 | CC1(C)[C@@H]2CC[C@@]1(C)[C@H](NC1CCN(Cc3ccc(F)cc3F)CC1)C2 (relative stereo)
5010 | Fc1cc(Cl)ccc1CN1CCC(N2CCc3ccccc3C2)CC1
1000 | Clc1ccc(CN2CCC(NC34CC5CC(CC(C5)C3)C4)CC2)cc1
1580 | Fc1cc(Cl)ccc1CN1CCCN(C2C3CC4CC(C3)CC2C4)CC1 (stereo unspecified)
5010 | CCOC(=O)C1CN(Cc2ccc(Cl)cc2F)CCC1NC1C2CC3CC(C2)CC1C3 (stereo in doubt; 32)
7940 | CC1(C)[C@@H]2CC[C@@]1(C)[C@H](NC1CCN(Cc3ccccn3)CC1)C2 (relative stereo)
2510 | CN(CC1C2CC3CC(C2)CC1C3)C1CCN(Cc2ccc(Cl)cc2F)CC1 (stereo unspecified)
2510 | CC1(C)[C@@H]2CC[C@@]1(C)[C@H](NC1CCN(Cc3ccccc3)CC1)C2 (relative stereo)
> 10000 | O=C(Nc1ccc(Cl)cc1F)N1CCC(NC2C3CC4CC(C3)CC2C4)CC1 (stereo unspecified)
10000 | COc1ccccc1CN1CCC(N[C@@H]2C[C@H]3CC[C@]2(C)C3(C)C)CC1 (relative stereo)
3160 | COC(=O)c1ccc(CN2CCC(N[C@@H]3C[C@H]4CC[C@]3(C)C4(C)C)CC2)cc1
3980 | Fc1cc(Cl)ccc1CN1CCC(NCC2CCCCC2)CC1
2000 | Fc1cc(Cl)ccc1CN1CCCC(NC2C3CC4CC(C3)CC2C4)C1 (stereo unspecified)
1580 | COc1ccc(CN2CCC(N[C@@H]3C[C@H]4CC[C@]3(C)C4(C)C)CC2)c(F)c1
1000 | Fc1cc(Cl)ccc1CN1CCC(NCC2C3CC4CC(C3)CC2C4)CC1 (stereo unspecified)
3.16 | CCNC(=O)c1cnc(N2CCN(C3CCN(Cc4ccc(Cl)cc4)CC3)[C@@H](CC)C2)c(Cl)c1
794 | CC1(C)[C@@H]2CC[C@@]1(C)[C@H](NC1CCN(Cc3ccc(OC(F)(F)F)cc3)CC1)C2 (relative stereo)
501 | CC1(C)[C@@H]2CC[C@@]1(C)[C@H](NC1CCN(Cc3c(F)c(F)c(F)c(F)c3F)CC1)C2 (relative stereo)
3980 | CC1(C)[C@@H]2CC[C@@]1(C)[C@H](NC1CCN(Cc3cc(F)cc(C(F)(F)F)c3)CC1)C2 (relative stereo)
5010 | CC(c1ccc(Cl)cc1F)N1CCC(NC2C3CC4CC(C3)CC2C4)CC1 (stereo unspecified)
> 10000 | CC(=O)Nc1ccc(CN2CCC(N[C@@H]3C[C@H]4CC[C@]3(C)C4(C)C)CC2)cc1 (relative stereo)
6310 | CC1(C)[C@@H]2CC[C@@]1(C)[C@H](NC1CCN(Cc3ccccc3F)CC1)C2 (relative stereo)
398 | CC1(C)[C@@H]2CC[C@@]1(C)[C@@H](NC1CCN(Cc3ccc(Cl)cc3F)CC1)C2 (relative stereo; 60)
794 | CC1(C)[C@@H]2CC[C@@]1(C)[C@H](NC1CCN(Cc3ccc(N=[N+]=[N-])cc3)CC1)C2 (relative stereo)

Structure (SMILES) | Ki [nM]
CN1C2CCC1CC(NC1CCN(Cc3ccc(Cl)cc3F)CC1)C2 (mixture of isomers) | > 10000

These molecules were tested against T2, C-X-C chemokine receptor type 3 (Homo sapiens) (UniProt P49682) (assay: Antagonist activity at human CXCR3 expressed in HEK293T cells coexpressing Galphaqi5 assessed as inhibition of CXCL10-induced [3H]inositol phosphate levels by liquid scintillation counting). Conditions: HEK-293T.
T2 sequence (whole entry): T1 sequence (P49682 whole entry)
Format: functional, cell-based

pKb | Structure (SMILES)
5.7 | CC1(C)[C@@H]2CC[C@@]1(C)[C@H](NC1CCN(Cc3ccc(Cl)cc3F)CC1)C2 (relative stereo)
6.1 | Fc1cc(Cl)ccc1CN1CCC(NC2C3CC4CC(C3)CC2C4)CC1 (stereo unspecified)
